Measurements from PMC3700073, “Synthesis and Biological Activity of New Thiopyrano[2,3-d]thiazoles Containing a Naphthoquinone Moiety” (Scientia Pharmaceutica, 2013).

How the values were obtained:
PC-3 (prostate cancer) = test: NCI five-dose assay; format: cell-based; details: Homo sapiens
OVCAR-4 (ovarian cancer) = test: NCI five-dose assay; format: cell-based; details: Homo sapiens, OVCAR-4, OVCAR-4, ovarian cancer
NCI-H322M (NSCL cancer) = test: NCI five-dose assay; format: cell-based; details: Homo sapiens
SK-MEL-28 (melanoma) = test: NCI five-dose assay; format: cell-based; details: Homo sapiens, SK-MEL-28, SK-MEL-28, melanoma
[1] = tested on: NCI/ADR-RES (breast cancer); test: NCI five-dose assay; format: cell-based; details: Homo sapiens
CAKI-1 (renal cancer) = test: NCI five-dose assay; format: cell-based; details: Homo sapiens, CAKI-1, CAKI-1, renal cancer
NCI-H226 (NSCL cancer) = test: NCI five-dose assay; format: cell-based; details: Homo sapiens
RPMI-8226 (leukemia) = test: NCI five-dose assay; format: cell-based; details: Homo sapiens, RPMI-8226, RPMI-8226, leukemia
SW-620 (colon cancer) = test: NCI five-dose assay; format: cell-based; details: Homo sapiens, SW-620, SW-620, colon cancer
UO-31 (renal cancer) = test: NCI five-dose assay; format: cell-based; details: Homo sapiens, UO-31, UO-31, renal cancer
T-47D (breast cancer) = test: NCI five-dose assay; format: cell-based; details: Homo sapiens, T47D
HL-60(TB) (leukemia) = test: NCI five-dose assay; format: cell-based; details: Homo sapiens, HL-60, HL-60(TB)
A498 (renal cancer) = test: NCI five-dose assay; format: cell-based; details: Homo sapiens
OVCAR-5 (ovarian cancer) = test: NCI five-dose assay; format: cell-based; details: Homo sapiens, OVCAR-5, OVCAR-5, ovarian cancer
60 cancer cell lines = details: over the cell line panel
MCF-7 (breast cancer) = test: NCI five-dose assay; format: cell-based; details: Homo sapiens, MCF7, MCF-7, breast cancer
CCRF-CEM (leukemia) = test: NCI five-dose assay; format: cell-based; details: Homo sapiens
HT29 (colon cancer) = test: NCI five-dose assay; format: cell-based; details: Homo sapiens, HT-29, HT29, colon cancer
HCT-116 (colon cancer) = test: NCI five-dose assay; format: cell-based; details: Homo sapiens, HCT-116, HCT-116, colon cancer
SNB-19 (CNS cancer) = test: NCI five-dose assay; format: cell-based; details: Homo sapiens, SNB-19, SNB-19, CNS cancer
[2] = tested on: MDA-MB-231/ATCC (breast cancer); test: NCI five-dose assay; format: cell-based; details: Homo sapiens, MDA-MB-231, MDA-MB-231/ATCC
MALME-3M (melanoma) = test: NCI five-dose assay; format: cell-based; details: Homo sapiens
NCI-H522 (NSCL cancer) = test: NCI five-dose assay; format: cell-based; details: Homo sapiens
UACC-62 (melanoma) = test: NCI five-dose assay; format: cell-based; details: Homo sapiens, UACC-62, UACC-62, melanoma
COLO 205 (colon cancer) = test: NCI five-dose assay; format: cell-based; details: Homo sapiens, COLO 205, COLO 205, colon cancer
NCI-H460 (NSCL cancer) = test: NCI five-dose assay; format: cell-based; details: Homo sapiens
OVCAR-8 (ovarian cancer) = test: NCI five-dose assay; format: cell-based; details: Homo sapiens, OVCAR-8, OVCAR-8, ovarian cancer
SF-295 (CNS cancer) = test: NCI five-dose assay; format: cell-based; details: Homo sapiens, SF-295, SF-295, CNS cancer
HCT-15 (colon cancer) = test: NCI five-dose assay; format: cell-based; details: Homo sapiens, HCT-15, HCT-15, colon cancer
786-0 (renal cancer) = test: NCI five-dose assay; format: cell-based; details: Homo sapiens, 786-0, 786-0, renal cancer
U251 (CNS cancer) = test: NCI five-dose assay; format: cell-based; details: Homo sapiens, U-251, U251, CNS cancer
SNB-75 (CNS cancer) = test: NCI five-dose assay; format: cell-based; details: Homo sapiens, SNB-75, SNB-75, CNS cancer
A549/ATCC (NSCL cancer) = test: NCI five-dose assay; format: cell-based; details: Homo sapiens
male mice = test: Acute toxicity in vivo, median lethal dose; details: intraperitoneal, approximate LD50 (Litchfield and Wilcoxon)
Description: The synthesized compounds were evaluated for their approximate LD50 in male mice. The mice were kept under a constant temperature and humidity in sterile cages with water and food. The stock solutions of the compounds used in this study were prepared immediately before usage and injected intraperitoneally (ip). The LD50 values (Tab. 3) were calculated using the method described by Litchfield and Wilcoxon.
The median lethal dose (LD50), the dose of the selected compounds that causes 50% mortality in mice, was determined from dose–response curves with at least four doses by the method of Litchfield and Wilcoxon.

[3] = tested on: MDA-MB-435 (breast cancer); test: NCI five-dose assay; format: cell-based; details: Homo sapiens, MDA-MB-435, MDA-MB-435, breast cancer
RXF-393 (renal cancer) = test: NCI five-dose assay; format: cell-based; details: Homo sapiens
M14 (melanoma) = test: NCI five-dose assay; format: cell-based; details: Homo sapiens

Molecule `COc1cc(C2C3=C(Sc4[nH]c(=O)sc42)C(=O)c2ccccc2C3=O)ccc1OCc1ccccc1` (stereo not shown) [Compound 4e, 11-[4-(Benzyloxy)-3-methoxyphenyl]-3,11-dihydro-2H-benzo[6,7]thiochromeno[2,3-d]-[1,3]thiazole-2,5,10-trione] has a GI50 (PC-3 (prostate cancer)) of 17.7 µM, a GI50 (OVCAR-4 (ovarian cancer)) of 4.48 µM and a GI50 (NCI-H322M (NSCL cancer)) of 10.9 µM. For the same molecule, the GI50 (SK-MEL-28 (melanoma)) was 12.2 µM, the GI50 [1] was 22.7 µM and the GI50 (CAKI-1 (renal cancer)) was 17.4 µM. It also gave a GI50 (NCI-H226 (NSCL cancer)) of 19.2 µM, a GI50 (RPMI-8226 (leukemia)) of 14.5 µM and a GI50 (SW-620 (colon cancer)) of 22.7 µM. For the same molecule, the GI50 (UO-31 (renal cancer)) was 5.62 µM, the GI50 (T-47D (breast cancer)) was 16.1 µM and the GI50 (HL-60(TB) (leukemia)) was 15.2 µM. The GI50 (A498 (renal cancer)) was 20.5 µM, the GI50 (OVCAR-5 (ovarian cancer)) was 32.1 µM and the “TGI MG_MID” value (60 cancer cell lines) was 40.74 µM. The GI50 (MCF-7 (breast cancer)) was 12.9 µM, the GI50 (CCRF-CEM (leukemia)) was 23.4 µM and the GI50 (HT29 (colon cancer)) was 11.2 µM. The GI50 (HCT-116 (colon cancer)) was 15.6 µM, the GI50 (SNB-19 (CNS cancer)) was 11.3 µM and the GI50 [2] was 7.81 µM. It also gave a GI50 (MALME-3M (melanoma)) of 7.12 µM, a GI50 (NCI-H522 (NSCL cancer)) of 15.9 µM and a GI50 (UACC-62 (melanoma)) of 12.5 µM. It also gave a GI50 (COLO 205 (colon cancer)) of 10.3 µM, a GI50 (NCI-H460 (NSCL cancer)) of 5.39 µM and a GI50 (OVCAR-8 (ovarian cancer)) of 13.9 µM. The GI50 (SF-295 (CNS cancer)) was 5.78 µM, the GI50 (HCT-15 (colon cancer)) was 11.5 µM and the GI50 (786-0 (renal cancer)) was 32.6 µM. For the same molecule, the GI50 (U251 (CNS cancer)) was 15.1 µM, the GI50 (SNB-75 (CNS cancer)) was 7.76 µM and the GI50 (A549/ATCC (NSCL cancer)) was 3.16 µM. For the same molecule, the LD50ip (male mice) was >1000 mg/kg, the GI50 [3] was 12 µM and the GI50 (RXF-393 (renal cancer)) was 6.98 µM. The GI50 (M14 (melanoma)) was 6.9 µM.
